Measured values from US20090082406A1, “Cancer Therapy” (National Health Research Institutes, priority 2004, published 2009).

How the values were obtained:
[1] = system: DBTRG 05MG cells (human glioblastoma cells); experiment: sulforhodamine assay of cell numbers, DBTRG 05MG cells; format: cell-based; conditions: 6 days
Experimental: DBTRG 05MG cells (human glioblastoma cells) were treated for 6 days with 0.5 μM of lovastatin (Clabiochem) alone and 10 μM of troglitazone (Clabiochem) alone. Cell numbers were then measured by the sulforhodamine assay (see, e.g., Rubinstein, L. V. et al., J. Natl. Cancer Institute, 1990, 82: 113).
The same cells were also treated with combinations of lovastatin and troglitazone at various ratios. The combination index values were calculated.
DBTRG 05MG cells were treated for 6 days with lovastatin (0.5 μM), troglitazone (10 μM), and mevalonolacetone (100 μM), the downstream product of […]. Cell numbers were measured by the sulforhodamine assay (see, e.g., Rubinstein, L. V. et al., J. Natl. Cancer Institute, 1990, 82: 113).

[2] = system: cyclin-dependent kinase 2 (CDK-2); experiment: Western blotting assay of CDK-2 in DBTRG 05MG cells; format: cell-based, human; conditions: 3 days, lovastatin (1 μM) alone
Experimental: (§1) Cell cycle-regulating proteins, cyclin-dependent kinase 2 (CDK-2), cyclin A, Rb protein, and p27^kip1 were tested to determine the effect of lovastain and troglitazone on regulating the cell cycle. Note that p27^kip1 is a universal CDK inhibitor and can modulate the drug resistance of cancer cells (Lloyd, R. V., Am. J. Pathol. 1999, 154: 313-323). Rb binds to many proteins, including several important gene regulatory proteins. Its binding capacity depends on its state of phosphoration. When Rb is dephosphorated, it binds to a set of regulatory proteins (e.g., E2F-1) that favor cell proliferation; and when phosphorated, it releases these proteins, thereby allowing them to act. […] The concentrations of cyclin-dependent kinase 2 (CDK-2), cyclin A, p27^kip1, Rb protein, and E2F-1 were determined by the Western blotting assay. Briefly, whole cell lysates were prepared with a radioimmunoprecipitation buffer supplemented with protease inhibitors (Sigma). The lysates were subjected to a sodium dodecylsulfate-polyacrylamide gel electrophoresis and transferred to polyvinylidene difluoride membranes (Bio-Rad) by electroblotting. After having been blocked for 1 hour at room temperature, the membranes were probed with a primary antibody overnight at 4° C. and then with a horseradish peroxidase-conjugated secondary antibody for 1 hour. […]

[3] = system: cyclin A; experiment: Western blotting assay of cyclin A in DBTRG 05MG cells; format: cell-based, human; conditions: 3 days, lovastatin (1 μM) alone
Experimental: as §1

[4] = system: E2F-1; experiment: Western blotting assay of E2F-1 in DBTRG 05MG cells; format: cell-based, human; conditions: 3 days, lovastatin (1 μM) alone
Experimental: as §1

[5] = system: p27^kip1; experiment: Western blotting assay of p27^kip1 in DBTRG 05MG cells; format: cell-based, human; conditions: 3 days, lovastatin (1 μM) alone
Experimental: as §1

[6] = system: Rb protein; experiment: Western blotting assay of Rb and phosphor-Rb (Ser807/811) in DBTRG 05MG cells; format: cell-based, human; conditions: 3 days, lovastatin (1 μM) alone
Experimental: as §1

Cc1c(C)c2c(c(C)c1O)CCC(C)(COc1ccc(CC3SC(=O)NC3=O)cc1)O2 (centres unmarked) [troglitazone]
cell number decrease ([1]; 10 μM of troglitazone alone): 11%

C[C@@]1(O)CCOC(=O)C1 [mevalonolacetone]
effect of added mevalonolacetone on the synergistic effect of lovastatin and troglitazone on cell numbers ([1]; lovastatin (0.5 μM), troglitazone (10 μM), mevalonolacetone (100 μM)): significantly attenuated

CC[C@H](C)C(=O)O[C@H]1C[C@@H](C)C=C2C=C[C@H](C)[C@H](CC[C@@H]3C[C@@H](O)CC(=O)O3)[C@H]21 [lovastatin]
cell number decrease ([1]; 0.5 μM of lovastatin alone): 9.7%
level of CDK-2 [2]: little or no change
level of cyclin A [3]: little or no change
level of E2F-1 [4]: little or no change
level of p27^kip1 [5]: little or no change
level of Rb [6]: little or no change
